14 compounds from ChEMBL document CHEMBL1777794, “Optimization of the physicochemical and pharmacokinetic attributes in a 6-azauracil series of P2X7 receptor antagonists leading to the discovery of the clinical candidate CE-224,535” (Bioorg Med Chem Lett, 2011) can be followed below.

In series [1] the target is T1, P2X purinoceptor 7 (Homo sapiens) (UniProt Q99572).
T1 sequence (whole entry): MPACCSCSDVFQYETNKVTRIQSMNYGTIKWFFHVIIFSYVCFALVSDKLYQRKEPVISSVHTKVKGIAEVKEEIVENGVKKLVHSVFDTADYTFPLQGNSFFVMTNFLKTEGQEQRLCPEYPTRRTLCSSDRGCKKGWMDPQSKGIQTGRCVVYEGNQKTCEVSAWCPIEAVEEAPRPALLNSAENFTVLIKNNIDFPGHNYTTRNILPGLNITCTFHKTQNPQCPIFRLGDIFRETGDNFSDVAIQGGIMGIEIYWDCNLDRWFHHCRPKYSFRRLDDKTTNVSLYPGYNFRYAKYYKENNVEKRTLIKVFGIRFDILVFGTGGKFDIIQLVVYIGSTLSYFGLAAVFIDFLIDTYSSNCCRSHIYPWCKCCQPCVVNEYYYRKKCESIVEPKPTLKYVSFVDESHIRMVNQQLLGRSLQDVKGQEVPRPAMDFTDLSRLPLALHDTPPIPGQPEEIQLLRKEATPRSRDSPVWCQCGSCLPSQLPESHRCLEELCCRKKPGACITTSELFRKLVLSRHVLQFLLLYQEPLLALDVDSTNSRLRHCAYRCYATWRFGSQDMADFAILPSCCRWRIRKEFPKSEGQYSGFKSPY
The series is described as follows: Antagonist activity at P2X7 receptor in human LPS-stimulated monocytes assessed as inhibition of ATP-induced IL1-beta release at 5 uM by ELISA. The format is functional, cell-based. Background: In an ELISA, binding on a coated surface is turned into a signal by an enzyme label.

The target of series [2] is T2, P2X purinoceptor 7 (Homo sapiens, UniProt Q99572).
T2 sequence (Q99572 whole entry): T1 sequence (whole entry)
Briefly: Antagonist activity at P2X7 receptor in human LPS-stimulated monocytes assessed as inhibition of ATP-induced IL1-beta release by ELISA. It counts as functional, cell-based.

Series [3] concerns the target T2, P2X purinoceptor 7. The series is described as follows: (§1) Antagonist activity at P2X7 receptor in human LPS-stimulated monocytes assessed as inhibition of ATP-induced IL1-beta release by ELISA in presence of human blood. It counts as functional, cell-based.
Series [4] has as its target T2, P2X purinoceptor 7. Briefly: Antagonist activity at P2X7 receptor expressed in HEK293 cells assessed as inhibition of ATP-induced YOPRO-1 uptake. The format is functional, cell-based.
Series [5] deals with T1, P2X purinoceptor 7 (Homo sapiens). The description is as §1. The format is functional, cell-based.
The nature of series [6]: Plasma protein binding in human. The format is ADME, cell-free. The following applies: read-out: PPB.
The subject of series [7] is Liver microsomes. Briefly: Metabolic stability in human liver microsomes assessed as compound turnover. The format is ADME, Microsome. (In general: Microsomes from liver hold many membrane-bound enzymes, among them those of drug oxidation.)
Series [8] relates to Hepatocyte. The series is described as follows: Metabolic stability in human hepatocytes assessed as compound turnover. It counts as ADME, cell-based.
Series [9] can be described thus: Apparent permeability from apical to basolateral side of human Caco2 cells. It counts as ADME, cell-based. Particulars: Caco-2. In general terms: Passage across Caco-2 layers is used to estimate intestinal permeability.
Series [10] is described as follows: Apparent permeability from basolateral to apical side of human Caco2 cells. It counts as ADME, cell-based. The following applies: Caco-2.
For series [11], the system named is Plasma. The series is described as follows: Fraction unbound in human plasma. It counts as ADME, cell-free.
Series [12] is described as follows: Cmax in rat at 5 mg/kg, po. The format is ADME, organism-based. The arrangement: dose 5 mg/kg, route oral. The following applies: in vivo.
Series [13] is described as follows: in vivo. Particulars: rat, plasma.
Series [14] has as its target T1, P2X purinoceptor 7 (Homo sapiens). The series is described as follows: Antagonist activity at P2X7 receptor in human monocytes assessed as inhibition of LPS/ATP-induced IL1-beta release at 1 uM by ELISA. The format is functional, cell-based.

pIC50: −log10 of the molar value. Where only a bound is given, the exact number is not on record here.

`CCOCCCNC(=O)c1cc(-n2ncc(=O)[nH]c2=O)ccc1Cl`: the inhibition (in general, the relative decrease from the control value, in per cent) in series [1] stood at 2%.
Regarding `CC(C)Cn1c(=O)cnn(-c2ccc(Cl)c(C(=O)NCC3(O)CCCCCC3)c2)c1=O`, the pIC50 (in general, the IC50 on a negative log10 scale, so that one unit is a factor of ten) in [2] is 7.47; in [3], 6.70.
For the compound `CCCCC(CC)CN(C)C(=O)c1cc(-n2ncc(=O)[nH]c2=O)ccc1Cl` (configuration not stated), the inhibition in [1] is 0%.
In the case of `O=C(NCCCc1ccccc1)c1cc(-n2ncc(=O)[nH]c2=O)ccc1Cl`, the inhibition in [1] came out at 0%.
Regarding `O=C(NCc1ccccc1)c1cc(-n2ncc(=O)[nH]c2=O)ccc1Cl`, the inhibition in series [1] is 15%.
With `Cc1ccc(-n2ncc(=O)[nH]c2=O)cc1C(=O)NCC1(O)CCCCCC1`, the negative logarithm of the IC50 (pIC50) in [2] was 6.15.
Take `CCCCC(CC)CNC(=O)c1cccc(-n2ncc(=O)[nH]c2=O)c1` (configuration not stated): the inhibition in series [1] was determined as 0%.
As for `CCCCNC(=O)c1cc(-n2ncc(=O)[nH]c2=O)ccc1Cl`, in series [1], the inhibition came out at 0%.
Turning to `COCCn1c(=O)cnn(-c2ccc(Cl)c(C(=O)NCC3(O)CCCCCC3)c2)c1=O`, the figures for the pIC50 in [2] and in series [3] were 7.72 and 7.15, respectively.
Take `O=C(NCC1CCCC1)c1cc(-n2ncc(=O)[nH]c2=O)ccc1Cl`: the inhibition in [1] amounted to 0%.
Take `O=C(NCCc1ccccc1Cl)c1cc(-n2ncc(=O)[nH]c2=O)ccc1Cl`: the negative logarithm of the IC50 (pIC50) in series [4] is 6.52; in series [2], 6.54; in [3] it was below 5.00. In series [5], the IC90 (commonly the point of the concentration-response curve where the effect stands at 90%) was above 10 µM. For the same compound, the fraction unbound in series [6] was below 0.005. The Stability entry in series [7] and in series [8] was “Stable” throughout. The Papp A→B (commonly how fast a substance crosses the layer from the apical side) in [9] is 10 ×10⁻⁶ cm/s. For the same compound, the Papp B→A (usually the apparent permeability from the basolateral to the apical side of a cell layer) in series [10] amounted to 21 ×10⁻⁶ cm/s. Besides, the Fu in [11] is reported as 0.005. In addition, the Cmax (usually the peak of the concentration-time curve) in series [12] came to 2000 ng/mL. For the same compound, the clearance – broadly, a measure of how efficiently the substance is removed, as volume per time – in [13] came out at 9.5 mL/min/kg.
Take `O=C(NCC1(O)CCCCCC1)c1cc(-n2ncc(=O)[nH]c2=O)ccc1F`: in series [14], the inhibition was 20%.
With `N#Cc1ccc(-n2ncc(=O)[nH]c2=O)cc1C(=O)NCC1(O)CCCCCC1`, the inhibition in series [14] was 0%.
With `O=C(NCCc1ccccn1)c1cc(-n2ncc(=O)[nH]c2=O)ccc1Cl`, the inhibition in series [1] worked out at 15%.
